These results are taken from publication PMC5940854, “Nitrothiophene carboxamides, a novel narrow spectrum antibacterial series: Mechanism of action and Efficacy” (Scientific Reports, 2018).

Data set [1] concerns E. coli acrD knockout strain. Nature of the data set: MIC, efflux pump knockout acrD. In kind it is cell-based. The following applies: Escherichia coli, read-out: MIC acrD. The procedure: (§1) The inoculum used for all the experiments is derived from a single seed lot that is maintained as glycerol stocks at −80 °C and are sub cultured on LB plate for isolated colonies. Single colony of each strain is grown in M9 medium. All test compound stocks and dilutions are prepared in DMSO. Serial two-fold dilutions of compounds are prepared separately, with the concentrations ranging from 2 mg/mL to 0.015 mg/mL. To 150 µl (3–7 × 10^5 CFU/ml) of bacterial culture in 96 well microtitre plates, 3 μL compound from each of the dilutions is added to respective wells to obtain final concentrations ranging from 40 µg/mL to 0.3 µg/mL of the test compounds. Media control, culture control and appropriate reference drug controls are included. […] Growth is monitored by checking absorbance at 600 nm (A600). […] The samples from MIC and above concentrations are plated for MBC (Minimum Bactericidal Concentration). The samples are diluted 1:10 and plated on LB agar plates. […] The killing kinetics is determined by enumerating survivors at various time points following compound exposure. E. coli cells (~10^7 CFU/ml; A600 of 0.1) are treated with various concentrations (40 µg/mL to 0.3 µg/mL) of compounds in a 96-well microtitre plate. […] Data is expressed as the log10 CFU for each drug treatment.

Data set [2] deals with E. coli mdtG knockout strain. Nature of the data set: MIC, efflux pump knockout mdtG. In kind it is cell-based. The note with it: Escherichia coli, read-out: MIC mdtG. The protocol:
as §1

Data set [3] relates to E. coli emrY knockout strain. Nature of the data set: MIC, efflux pump knockout emrY. The format is cell-based. The following applies: Escherichia coli, read-out: MIC emrY. The protocol:
as §1

The test system of data set [4] is E. coli mdtB knockout strain. Nature of the data set: MIC, efflux pump knockout mdtB. The format is cell-based. The following applies: Escherichia coli, read-out: MIC mdtB. The procedure:
as §1

Data set [5] relates to E. coli yciM knockout strain. Nature of the data set: MIC, efflux pump knockout yciM. The format is cell-based. The following applies: Escherichia coli, read-out: MIC yciM. The protocol: as §1
Data set [6] relates to E. coli macB knockout strain. Nature of the data set: MIC, efflux pump knockout macB. The following applies: Escherichia coli, read-out: MIC macB. In kind it is cell-based. The protocol:
as §1

The test system of data set [7] is E. coli bcr knockout strain. Nature of the data set: MIC, efflux pump knockout bcr. The format is cell-based. The following applies: Escherichia coli, read-out: MIC bcr. The protocol: as §1
Data set [8] has as its system E. coli hsrA knockout strain. Nature of the data set: MIC, efflux pump knockout hsrA. The format is cell-based. The note with it: Escherichia coli, read-out: MIC hsrA. The protocol:
as §1

The next data set can be described thus: Oral pharmacokinetics. The format is in vivo, BALB/c mice. Further details: Ke: unit not given here. The note with it: for AUC / AUC(0-inf) / AUC(0-t) / Cmax / Tmax / half-life / bioavailability: BALB/c, mouse, plasma; for AUC: po; for AUC(0-inf) / AUC(0-t) / Cmax / Tmax / half-life / Ke / ext AUC: mice. The protocol:
The test substances were formulated in 10% DMSO in 0.25% carboxy methyl cellulose. […] Then 3.6 ml of 0.25% of CMC was added in aliquots to the DMSO solution, with constant grinding using a pestle until a uniform suspension was obtained. […]
(§2) At 5 min, 15 min, 30 min, 1 h, 2 h, 4 h, 8 h, and 24 h time points, and prior to sampling, mice were anaesthetized with isoflurane. From each mouse, two blood samples were drawn; the 1st was non-terminal (0.1 ml) and the 2nd terminal, by retro-orbital plexus puncture using heparanised capillary tubes. Blood was collected in 2 ml Eppendorf tubes containing 0.01 ml of 10% K2EDTA as anticoagulant, mixed gently and placed in ice before centrifugation. Blood was centrifuged at 10,000 rpm for 5 min, and plasma was harvested and stored at −80 °C until bioanalysis.
(§3) Ultrafast liquid chromatography mass spectrometric method was used for the estimation of test compounds in pre-clinical study samples. The analysis was performed using an API 4000 LC-MS/MS system. The interface used with the API 4000 LC-MS/MS was a Turbo Ion spray. The positive ions were measured in MRM mode. The analyte was extracted using a solid-phase extraction procedure. The data was acquired by and integrated using the Applied Biosystems “Analyst” version 1.5.2 software. Linear regression, with 1/x^2 weighting was used for calibration.
(§4) Non-compartmental (NCA) PK analysis was performed using MS Excel. The linear trapezoidal rule was used to estimate the AUC. The NCA analysis was performed using the following equations (3) on mean concentration time data: AUC=Σ[(Ci1+Ci2)/2]∗[ti2−ti1] AUMC=Σ[((Ci1∗ti1)+(Ci2∗ti2))/2)∗(ti2−ti1)] AUCt−∞=Clast/Kel AUC0−∞=AUC0−t+AUCt−∞ AUCextrapolated(%)=[AUCt−∞/AUC0−∞]∗100 where, Ci1 and Ci2 are the concentrations at times ti1 and ti2, respectively. Kel=ln(Cx/Cy)/(ty−tx) where, Kel is the first order elimination rate constant, ln is the natural logarithm, Cx and Cy are the first and last concentrations, respectively on the linear portion of the terminal phase of the concentration-time profile, and ty and tx are the corresponding time points. T1/2=0.693/Kel Cl=Doseiv/AUC0−∞ Vss=(AUMC0−∞/AUC0−∞)∗(Doseiv/AUC0−∞) Cmax and tmax were visually estimated from the mean oral conc-time profile F(%)=(AUCpo/AUCiv)∗(Doseiv/Dosepo)∗100

Data set [9] relates to Shigella flexneri clinical strain. Nature of the data set: MIC, Shigella flexneri. The format is cell-based. The protocol: as §1
Data set [10] relates to Shigella sonnei clinical strain. Nature of the data set: MIC, Shigella sonnei. In kind it is cell-based. The procedure: as §1
Data set [11] in a line: Intravenous pharmacokinetics. In kind it is in vivo, BALB/c mice. The note with it: for AUC / AUC(0-inf) / AUC(0-t) / clearance / half-life / Vd: BALB/c, mouse, in vivo; for AUC: iv, 2 mg/kg, used for estimation of oral bioavailability; for AUC(0-inf) / AUC(0-t) / clearance / half-life / Vd / AUMC0-∞ / Clast / Kel(β) / extr AUC: mice, single IV dose 2 mg/kg; for Vd: read-out: Vss; for condition of mice post dose and throughout the study: single intravenous dose of 2 mg/kg or single oral dose of 10 mg/kg. The protocol: The test substances were formulated in the vehicle DMSO: PEG400: Ethanol (absolute): Water at ratio of 10:40:20:30 (v/v). The required quantity of test compound was weighed, transferred into a vial and dissolved using the appropriate volumes of DMSO, PEG400, Ethanol (absolute) and sterile water in a sequential manner until a clear solution was obtained. The test substance was administered intravenously as a bolus via the tail vein at a dose volume of 5 ml/kg.
as §2, §3, §4

Data set [12] relates to Salmonella typhimurium clinical strain. Nature of the data set: MIC, Salmonella typhimurium. In kind it is cell-based. The procedure: as §1

Converted amounts (≈) assume the structure as drawn. Bounds are passed on as bounds.

As for `Cc1sc(NC(=O)c2ccc([N+](=O)[O-])s2)nc1-c1ccccc1` [compound 7, N-(5-Methyl-4-phenylthiazol-2-yl)-5-nitrothiophene-2-carboxamide], the MIC in data set [1], in data set [2], in [3], in [4], in [5] and in data set [6] was over 40 µg/mL in each case. Besides, the MIC in [7] and in data set [8] was over 40 µg/mL in each case.

In the case of `O=C(Nc1nc(-c2ccc(F)cc2F)cs1)c1ccc([N+](=O)[O-])s1` [compound 12, N-(4-(2,4-difluorophenyl)thiazol-2-yl)-5-nitrothiophene-2-carboxamide], in the data set “Oral pharmacokinetics” (10 mg/kg), the AUC (as a rule, concentration integrated over time) was 760 ng·h/mL. Also, in the data set “Oral pharmacokinetics” (single oral dose 10 mg/kg), the AUC(0-inf) (commonly the area under the concentration-time curve extrapolated to infinity) stood at 760 ng·h/mL; the exposure AUC(0-t) (as a rule, the area under the concentration-time curve up to a stated or last time point) was determined as 750 ng·h/mL; the highest level (Cmax) was 650 ng/mL; the Tmax (in general, the time at which the peak concentration occurs) is 15 min. For the same compound, in the data set “Oral pharmacokinetics” (single oral dose 10 mg/kg), the half-life (in general, the time needed for the level to fall by half in the phase considered) is 61.8 min; the Ke is listed as 0.67; the “ext AUC” value was 0.5%. Further, the bioavailability – broadly, dose-corrected exposure relative to a reference, in per cent – in the data set “Oral pharmacokinetics” (oral 10 mg/kg vs IV 2 mg/kg) was 26.7%. For the same compound, the MIC Shigella flexneri in data set [9] worked out at 10 µg/mL (≈ 27.2 µM). For the same compound, the MIC Shigella sonnei in [10] was found to be 5 µg/mL (≈ 13.6 µM). Further, in data set [11], the AUC was 570 ng·h/mL; the AUC(0-inf) was found to be 570 ng·h/mL; the exposure AUC(0-t) is 570 ng·h/mL; the clearance – broadly, a measure of how efficiently the substance is removed, as volume per time – is 58.7 mL/min/kg. Also, in [11], the half-life is 36 min, the Vd worked out at 1.64 L/kg, the “AUMC0-∞” value was determined as 0.26 and the Clast is 3 ng/mL. Also, in data set [11], the “Kel(β)” value was 1.18 ^-h; the “extr AUC” value was 0.4%; the “condition of mice post dose and throughout the study” value was “visibly normal”. Further, the MIC Salmonella typhimurium in data set [12] was 2.5 µg/mL (≈ 6.81 µM).

The compound `O=C(Nc1nc(-c2ccc(F)cc2)cs1)c1ccc([N+](=O)[O-])s1` [compound 15, N-(4-(4-Fluorophenyl)thiazol-2-yl)-5-nitrothiophene-2-carboxamide] yielded an AUC in “Oral pharmacokinetics” (10 mg/kg) of 750 ng·h/mL. Moreover, in “Oral pharmacokinetics” (100 mg/kg), the AUC amounted to 10300 ng·h/mL. Also, in the data set “Oral pharmacokinetics” (single oral dose 10 mg/kg), the AUC(0-inf) was 760 ng·h/mL, the AUC(0-t) was found to be 750 ng·h/mL, the peak level (Cmax) was 1200 ng/mL and the Tmax came to 15 min. For the same compound, in “Oral pharmacokinetics” (single oral dose 10 mg/kg), the half-life is 289 min, the Ke is reported as 0.14 and the “ext AUC” value worked out at 1.5%. Moreover, in the data set “Oral pharmacokinetics” (single oral dose 100 mg/kg), the exposure AUC(0-t) worked out at 10300 ng·h/mL; the Cmax (in general, the maximum level reached in the sampled fluid or tissue) amounted to 3800 ng/mL; the time to peak (Tmax) was 15 min. In “Oral pharmacokinetics” (oral 10 mg/kg vs IV 2 mg/kg), this compound yielded a bioavailability of 16.5%. This compound gave a bioavailability in the data set “Oral pharmacokinetics” (oral 100 mg/kg vs IV 2 mg/kg) of 22.6%. For the same compound, in data set [11], the AUC is 910 ng·h/mL, the AUC(0-inf) was determined as 911 ng·h/mL, the AUC(0-t) turned out to be 900 ng·h/mL and the clearance is 36.7 mL/min/kg. In data set [11], the half-life is 30 min, the Vd is 0.4 L/kg, the “AUMC0-∞” value is 0.17 and the Clast was determined as 12 ng/mL. Further, in data set [11], the “Kel(β)” value is 1.51 ^-h; the “extr AUC” value is recorded as 0.9%; the “condition of mice post dose and throughout the study” value was “visibly normal”.

As for `COc1cc(-c2csc(NC(=O)c3ccc([N+](=O)[O-])s3)n2)ccc1Cl` [compound 20, N-(4-(4-chloro-3-methoxyphenyl)thiazol-2-yl)-5-nitrothiophene-2-carboxamide], in data set [12], the MIC Salmonella typhimurium stood at 10 µg/mL (≈ 25.3 µM).
